Data on ten molecules can be found in PubChem BioAssay (NCI).

Some test systems named below: TK-10 renal; MDA-MB-435; HCT-15 colon; OVCAR-4 ovarian; OVCAR-3 ovarian; MCF7 breast; UO-31 renal; 786-0 renal; A549 NSCLC.
Assay in all cases: NCI tumour cell line growth inhibition, 48 h

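Results reflect a 48-hour exposure of cells in 96-well plates to compound at five concentrations. Here, GI50 denotes the concentration required for 50% inhibition of growth. TGI: concentration producing complete growth inhibition.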

With `CC(C)(C)NCC(O)c1ccccc1Cl` (stereo not given), the GI50 in the assay on TK-10 renal, in the assay with MDA-MB-435, in the assay with HCT-15 colon, with OVCAR-4 ovarian, in the assay with OVCAR-3 ovarian and in the assay with MCF7 breast was greater than 100 µM each time. In addition, the GI50 in the assay with UO-31 renal, in the assay with 786-0 renal and with A549 NSCLC was greater than 100 µM throughout. Moreover, the TGI in the assay with TK-10 renal, in the assay on MDA-MB-435, with HCT-15 colon, with OVCAR-4 ovarian, with OVCAR-3 ovarian and in the assay with MCF7 breast was greater than 100 µM each time. The TGI with UO-31 renal, in the assay with 786-0 renal and in the assay with A549 NSCLC was greater than 100 µM throughout.

As to `CC(C)N1CC2CC(CN(C(=O)c3ccc(Cl)cc3)C2)C1`, the TGI in the assay with TK-10 renal, in the assay on HCT-15 colon, in the assay with OVCAR-4 ovarian, in the assay with OVCAR-3 ovarian, in the assay on UO-31 renal and with 786-0 renal was greater than 100 µM each time. This molecule registered a TGI in the assay on A549 NSCLC greater than 100 µM.

Turning to `OC1OCC(COc2cc(Cl)c(Cl)cc2Cl)OC1O` (stereo not given), the TGI in the assay on TK-10 renal is greater than 100 µM; with HCT-15 colon it was 44.6 µM; in the assay with OVCAR-4 ovarian, greater than 100 µM; in the assay on OVCAR-3 ovarian, 69.5 µM; in the assay on UO-31 renal, greater than 100 µM; in the assay with 786-0 renal, greater than 100 µM. For the same molecule, the TGI in the assay on A549 NSCLC is greater than 100 µM.

Regarding `CC(NNC(=S)N1CCN(c2ccccn2)CC1)c1nccc2ccccc12` (stereo not given), the TGI in the assay with TK-10 renal came out at 16.3 µM; in the assay on MDA-MB-435, 17 µM; in the assay on HCT-15 colon, 17.3 µM; with OVCAR-4 ovarian, 19.2 µM; in the assay with OVCAR-3 ovarian, 13.2 µM; with MCF7 breast it was 14.3 µM. Besides, the TGI turned out to be 8.34 µM in the assay with UO-31 renal, 13 µM with 786-0 renal and 13.2 µM in the assay on A549 NSCLC.

In the case of `CC(=O)C1=C(C)N(Cc2ccccc2)C2(O)C=CC(=O)C3=C(O)c4ccccc4C(=O)C312` (stereo not given), the GI50 in the assay on TK-10 renal is 2.82 µM; in the assay on MDA-MB-435 it was 2.26 µM; with HCT-15 colon, 1.81 µM; in the assay on OVCAR-4 ovarian, 4.84 µM; in the assay with OVCAR-3 ovarian, 1.42 µM; in the assay on MCF7 breast, 3.8 µM. The GI50 is 2.26 µM with 786-0 renal and 20.1 µM in the assay on A549 NSCLC. In addition, the TGI is 6.18 µM with TK-10 renal; 4.14 µM in the assay with MDA-MB-435; 4.51 µM in the assay on HCT-15 colon; 44.3 µM in the assay with OVCAR-4 ovarian; 3.14 µM with OVCAR-3 ovarian; 26.2 µM with MCF7 breast. Moreover, the TGI in the assay with 786-0 renal is 4.26 µM; in the assay with A549 NSCLC, greater than 100 µM.

Regarding `COc1ccc(N=NC2=C(O)CCC2=O)cc1`, the TGI with TK-10 renal, in the assay on HCT-15 colon, in the assay with OVCAR-4 ovarian, in the assay on OVCAR-3 ovarian, in the assay on UO-31 renal and in the assay on 786-0 renal was greater than 100 µM each time. The TGI in the assay on A549 NSCLC is greater than 100 µM.

On to `CN1C(=O)N(C)C2C1NC(=S)N2/N=C/C=C/c1ccccc1[N+](=O)[O-]` (stereo not given), for which the GI50 in the assay with MDA-MB-435 was 0.271 µM; with HCT-15 colon, 0.889 µM; in the assay on OVCAR-4 ovarian it was greater than 100 µM; in the assay on OVCAR-3 ovarian it was 0.344 µM; with MCF7 breast, 0.409 µM; in the assay on UO-31 renal it was 3.86 µM. Moreover, the figures for the GI50 in the assay with 786-0 renal and in the assay with A549 NSCLC were 0.835 µM and 2.15 µM, respectively. The TGI in the assay on MDA-MB-435 is 0.997 µM; in the assay on HCT-15 colon, greater than 100 µM; in the assay with OVCAR-4 ovarian, greater than 100 µM; with OVCAR-3 ovarian it was greater than 100 µM; in the assay with MCF7 breast, greater than 100 µM; with UO-31 renal, greater than 100 µM. The TGI in the assay on 786-0 renal and in the assay on A549 NSCLC was greater than 100 µM in each case.

For the molecule `CCO/C=C\C12CCCC1NC(c1ccccc1)(c1ccccc1)O2` (stereo not given), the TGI is greater than 100 µM in the assay on TK-10 renal; greater than 100 µM in the assay with OVCAR-4 ovarian; 55.7 µM in the assay on OVCAR-3 ovarian; 73.6 µM in the assay with UO-31 renal; greater than 100 µM with 786-0 renal; greater than 100 µM in the assay on A549 NSCLC.

With `NC(=O)NNC/C(Cl)=C(\Cl)C(=O)O`, the TGI in the assay with TK-10 renal, in the assay on HCT-15 colon, in the assay on OVCAR-4 ovarian, with OVCAR-3 ovarian, in the assay on UO-31 renal and with 786-0 renal was greater than 100 µM in each case. This molecule also displayed a TGI with A549 NSCLC greater than 100 µM.

Consider `CC1C(c2ccccc2)N(C)C(c2ccccc2)C(C)C1(O)c1ccccc1` (stereo not given), for which the TGI in the assay on TK-10 renal, with HCT-15 colon, in the assay with OVCAR-4 ovarian, in the assay on OVCAR-3 ovarian, with UO-31 renal and in the assay with 786-0 renal was greater than 100 µM each time. For the same molecule, in the assay on A549 NSCLC, the TGI is greater than 100 µM.
